Key:
[1] = DRUGMATRIX: Sodium/nucleoside co-transporter radioligand binding (ligand: nitrobenzylthioinosine); format: cell membranes, Cavia porcellus, Dunkin-Hartley, Cerebral cortex, Membrane; conditions: Not Active = under 50% inhibition at 10 µM
[2] = biological target: T1, Alpha-1B adrenergic receptor (Rattus norvegicus, UniProt P15823); test: DRUGMATRIX: Alpha-1B adrenergic receptor radioligand binding (ligand: prazosin); format: cell membranes, Wistar, Liver, Membrane; conditions: Not Active = under 50% inhibition at 10 µM
T1 sequence (P15823 whole entry): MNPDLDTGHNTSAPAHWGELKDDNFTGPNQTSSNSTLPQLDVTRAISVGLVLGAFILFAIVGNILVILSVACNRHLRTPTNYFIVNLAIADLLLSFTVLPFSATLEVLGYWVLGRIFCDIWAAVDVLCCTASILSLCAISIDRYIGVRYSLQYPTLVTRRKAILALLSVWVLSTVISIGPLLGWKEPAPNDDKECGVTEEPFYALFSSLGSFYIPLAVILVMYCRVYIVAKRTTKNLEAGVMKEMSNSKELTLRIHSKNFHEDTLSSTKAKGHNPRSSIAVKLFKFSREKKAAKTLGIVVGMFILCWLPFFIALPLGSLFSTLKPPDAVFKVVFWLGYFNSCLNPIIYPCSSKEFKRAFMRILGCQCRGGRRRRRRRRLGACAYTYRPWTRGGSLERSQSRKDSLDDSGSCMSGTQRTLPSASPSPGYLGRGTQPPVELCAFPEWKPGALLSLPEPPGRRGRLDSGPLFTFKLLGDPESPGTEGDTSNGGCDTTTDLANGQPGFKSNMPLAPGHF

[3] = biological target: Vascular endothelial growth factor receptor 1 (Homo sapiens, UniProt P17948); test: biochemical; format: cell-based, HUVEC; conditions: huvec; further: in other assays of this panel Not Active means under 50% inhibition at 10 µM
[4] = DRUGMATRIX: Glutamate, NMDA, Phencyclidine radioligand binding (ligand: [3H] TCP); format: cell membranes, Rattus norvegicus, Wistar, Cerebral cortex, Membrane; conditions: Not Active = under 50% inhibition at 10 µM
[5] = biological target: T2, Polyunsaturated fatty acid lipoxygenase ALOX15 (Oryctolagus cuniculus, UniProt P12530); test: biochemical; format: tissue-based, Reticulocytes; conditions: reticulocytes;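 further: inhibition of 15-lipoxygenase enzyme activity measured with linoleic acid as the substrate; in other assays of this panel Not Active means under 50% inhibition at 10 µM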
T2 sequence (P12530 whole entry): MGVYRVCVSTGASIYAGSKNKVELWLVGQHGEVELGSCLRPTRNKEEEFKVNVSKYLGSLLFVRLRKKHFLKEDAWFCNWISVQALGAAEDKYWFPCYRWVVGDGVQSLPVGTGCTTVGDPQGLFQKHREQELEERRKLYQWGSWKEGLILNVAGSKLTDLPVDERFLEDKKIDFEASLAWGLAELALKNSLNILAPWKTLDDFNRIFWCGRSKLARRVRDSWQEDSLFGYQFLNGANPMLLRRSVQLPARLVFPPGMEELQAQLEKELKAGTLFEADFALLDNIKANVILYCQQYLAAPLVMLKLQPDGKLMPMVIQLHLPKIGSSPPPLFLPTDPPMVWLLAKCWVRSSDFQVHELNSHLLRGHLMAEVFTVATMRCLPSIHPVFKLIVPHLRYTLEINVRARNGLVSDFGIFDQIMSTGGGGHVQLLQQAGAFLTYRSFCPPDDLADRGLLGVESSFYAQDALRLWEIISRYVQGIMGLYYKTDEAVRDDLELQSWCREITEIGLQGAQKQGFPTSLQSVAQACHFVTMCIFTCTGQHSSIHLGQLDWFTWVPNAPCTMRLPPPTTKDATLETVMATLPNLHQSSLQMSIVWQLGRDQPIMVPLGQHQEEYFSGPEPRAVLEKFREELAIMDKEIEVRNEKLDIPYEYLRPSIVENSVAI

Cathepsin G = biological target: T3, Cathepsin G (Homo sapiens, UniProt P08311); format: tissue-based; conditions: neutrophil;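 further: inhibition of Cathepsin G enzyme activity, tested on an AMC-conjugated peptide substrate; in other assays of this panel Not Active means under 50% inhibition at 10 µM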
T3 sequence (P08311 whole entry): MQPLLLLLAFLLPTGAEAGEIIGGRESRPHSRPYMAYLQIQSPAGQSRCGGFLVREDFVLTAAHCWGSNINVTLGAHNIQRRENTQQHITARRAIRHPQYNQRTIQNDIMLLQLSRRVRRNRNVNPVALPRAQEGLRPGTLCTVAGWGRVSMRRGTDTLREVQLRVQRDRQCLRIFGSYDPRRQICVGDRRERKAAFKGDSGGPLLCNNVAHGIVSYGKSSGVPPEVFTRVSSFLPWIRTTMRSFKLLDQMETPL

[6] = biological target: Tyrosine-protein kinase Lck (Homo sapiens, UniProt P06239); test: DRUGMATRIX: Protein Tyrosine Kinase, LCK enzyme inhibition (substrate: Poly(Glu:Tyr)); format: cell-based, Insect cells; conditions: Not Active = under 50% inhibition at 10 µM
Sequence of Tyrosine-protein kinase Lck (P06239 whole entry): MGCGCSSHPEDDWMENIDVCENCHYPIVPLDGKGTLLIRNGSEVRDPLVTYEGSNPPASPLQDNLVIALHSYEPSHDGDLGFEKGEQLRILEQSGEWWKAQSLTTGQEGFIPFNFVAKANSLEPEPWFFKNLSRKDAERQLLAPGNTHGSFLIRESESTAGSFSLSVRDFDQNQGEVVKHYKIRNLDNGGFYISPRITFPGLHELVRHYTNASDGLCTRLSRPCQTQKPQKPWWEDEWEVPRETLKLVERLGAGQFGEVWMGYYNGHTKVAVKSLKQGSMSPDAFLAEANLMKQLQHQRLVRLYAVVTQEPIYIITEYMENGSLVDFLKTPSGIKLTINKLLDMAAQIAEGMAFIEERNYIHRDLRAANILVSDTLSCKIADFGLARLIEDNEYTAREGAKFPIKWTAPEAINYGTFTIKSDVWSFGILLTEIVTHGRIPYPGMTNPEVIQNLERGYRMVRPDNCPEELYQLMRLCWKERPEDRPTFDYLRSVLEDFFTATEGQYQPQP

Sequence of Vascular endothelial growth factor receptor 1 (P17948 whole entry): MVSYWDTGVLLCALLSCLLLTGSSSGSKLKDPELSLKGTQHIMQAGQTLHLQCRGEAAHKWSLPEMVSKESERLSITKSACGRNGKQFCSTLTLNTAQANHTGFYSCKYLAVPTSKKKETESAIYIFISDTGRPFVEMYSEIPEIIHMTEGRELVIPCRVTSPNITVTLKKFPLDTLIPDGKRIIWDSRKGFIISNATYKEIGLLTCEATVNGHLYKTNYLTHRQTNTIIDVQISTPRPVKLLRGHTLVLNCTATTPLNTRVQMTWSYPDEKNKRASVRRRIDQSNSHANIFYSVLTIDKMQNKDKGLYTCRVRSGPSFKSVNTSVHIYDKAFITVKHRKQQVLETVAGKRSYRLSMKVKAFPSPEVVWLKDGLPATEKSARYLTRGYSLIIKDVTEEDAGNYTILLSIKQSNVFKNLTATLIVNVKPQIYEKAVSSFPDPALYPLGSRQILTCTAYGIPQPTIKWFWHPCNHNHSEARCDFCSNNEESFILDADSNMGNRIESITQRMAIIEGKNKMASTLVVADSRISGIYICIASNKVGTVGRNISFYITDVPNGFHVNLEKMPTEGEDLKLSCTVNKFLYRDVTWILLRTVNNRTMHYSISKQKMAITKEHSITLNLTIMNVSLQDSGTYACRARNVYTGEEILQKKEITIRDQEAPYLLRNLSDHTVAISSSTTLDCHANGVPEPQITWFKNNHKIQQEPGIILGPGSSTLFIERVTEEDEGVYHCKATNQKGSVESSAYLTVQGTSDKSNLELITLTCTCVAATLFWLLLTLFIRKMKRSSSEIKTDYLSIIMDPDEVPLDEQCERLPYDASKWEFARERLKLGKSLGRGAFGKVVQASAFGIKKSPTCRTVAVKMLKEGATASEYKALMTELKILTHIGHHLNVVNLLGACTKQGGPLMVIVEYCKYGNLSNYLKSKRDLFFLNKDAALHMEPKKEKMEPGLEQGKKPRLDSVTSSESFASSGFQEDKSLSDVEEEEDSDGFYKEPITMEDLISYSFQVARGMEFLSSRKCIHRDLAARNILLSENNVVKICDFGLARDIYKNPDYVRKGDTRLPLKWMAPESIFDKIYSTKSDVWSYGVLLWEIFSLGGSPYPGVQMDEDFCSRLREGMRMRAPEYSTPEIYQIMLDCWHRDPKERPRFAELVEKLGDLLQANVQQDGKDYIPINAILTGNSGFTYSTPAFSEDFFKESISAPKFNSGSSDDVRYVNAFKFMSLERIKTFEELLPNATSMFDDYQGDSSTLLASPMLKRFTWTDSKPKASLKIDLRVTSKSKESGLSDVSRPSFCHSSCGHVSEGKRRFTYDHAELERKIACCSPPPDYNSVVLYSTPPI

Compound | IC50 [1] | Ki [1] | IC50 [2] | IC50 [3] | IC50 [4] | Ki [4] | IC50 [5] | IC50 (Cathepsin G) | IC50 ([6]; insect cells) | IC50 ([2]; read-out: IC50) | Ki ([2]; read-out: Ki) | IC50 ([6]; read-out: IC50) | Ki [2] | Ki [3] | Ki [5] | Ki (Cathepsin G) | Ki ([6]; insect cells)
O=C(Oc1ccccc1C(=O)O)c1ccccc1O [SALSALATE] | Not Active | Not Active | Not Active | Not Active | Not Active | Not Active | Not Active | Not Active | Not Active | – | – | – | – | – | – | – | –
O=C(O)c1cn(-c2ccc(F)cc2)c2cc(N3CCNCC3)c(F)cc2c1=O [SARAFLOXACIN] | Not Active | Not Active | Not Active | Not Active | Not Active | Not Active | Not Active | Not Active | Not Active | – | – | – | – | – | – | – | –
CC(C)NCC(O)c1ccc(NS(C)(=O)=O)cc1 (stereo not drawn) [SOTALOL] | Not Active | Not Active | Not Active | Not Active | Not Active | Not Active | Not Active | Not Active | Not Active | – | – | – | – | – | – | – | –
O.O.O.O.O.O.[Cl-].[Cl-].[Sr+2] [STRONTIUM CHLORIDE HEXAHYDRATE] | Not Active | Not Active | Not Active | Not Active | Not Active | Not Active | Not Active | Not Active | Not Active | – | – | – | – | – | – | – | –
O=C1C(CC[S+]([O-])c2ccccc2)C(=O)N(c2ccccc2)N1c1ccccc1 (stereo not drawn) [SULFINPYRAZONE] | Not Active | Not Active | Not Active | Not Active | Not Active | Not Active | Not Active | Not Active | Not Active | – | – | – | – | – | – | – | –
NC(=O)N1C(=O)/C(=C(\O)c2cccs2)c2cc(Cl)ccc21 [TENIDAP] | Not Active | Not Active | Not Active | Not Active | Not Active | Not Active | Not Active | Not Active | Not Active | – | – | – | – | – | – | – | –
COc1cc2nc(N3CCN(C(=O)C4CCCO4)CC3)nc(N)c2cc1OC (stereo not drawn) [TERAZOSIN] | Not Active | Not Active | – | Not Active | Not Active | Not Active | Not Active | Not Active | Not Active | 6.03 nM | 3.33 nM | – | – | – | – | – | –
CN(C/C=C/C#CC(C)(C)C)Cc1cccc2ccccc12 [TERBINAFINE] | Not Active | Not Active | Not Active | Not Active | Not Active | Not Active | Not Active | Not Active | Not Active | – | – | – | – | – | – | – | –
CCCCNc1ccc(C(=O)OCCN(C)C)cc1 [TETRACAINE] | Not Active | Not Active | Not Active | Not Active | Not Active | Not Active | Not Active | Not Active | Not Active | – | – | – | – | – | – | – | –
Cn1c(=O)c2nc[nH]c2n(C)c1=O.O [THEOPHYLLINE] | Not Active | Not Active | Not Active | Not Active | Not Active | Not Active | Not Active | Not Active | Not Active | – | – | – | – | – | – | – | –
CS(=O)(=O)c1ccc([C@@H](O)[C@@H](CO)NC(=O)C(Cl)Cl)cc1 [THIAMPHENICOL] | Not Active | Not Active | Not Active | Not Active | Not Active | Not Active | Not Active | Not Active | Not Active | – | – | – | – | – | – | – | –
CCN(CC)CCNC(=O)c1cc(S(C)(=O)=O)ccc1OC [TIAPRIDE] | Not Active | Not Active | Not Active | Not Active | Not Active | Not Active | Not Active | Not Active | Not Active | – | – | – | – | – | – | – | –
Clc1ccccc1CN1CCc2sccc2C1 [TICLOPIDINE] | Not Active | Not Active | Not Active | Not Active | Not Active | Not Active | Not Active | Not Active | Not Active | – | – | – | – | – | – | – | –
NC1CCN(c2nc3c(cc2F)c(=O)c(C(=O)O)cn3-c2ccc(F)cc2F)C1 (stereo not drawn) [TOSUFLOXACIN] | Not Active | Not Active | Not Active | Not Active | Not Active | Not Active | Not Active | Not Active | Not Active | – | – | – | – | – | – | – | –
O=C(Nc1ccc(Br)cc1)c1cc(Br)cc(Br)c1O [TRIBROMSALAN] | Not Active | Not Active | Not Active | Not Active | Not Active | Not Active | Not Active | Not Active | – | – | – | 5020 nM | – | – | – | – | –
CC(c1cc2ccccc2s1)N(O)C(N)=O (stereo not drawn) [ZILEUTON] | Not Active | Not Active | Not Active | Not Active | Not Active | Not Active | Not Active | Not Active | Not Active | – | – | – | – | – | – | – | –
MANGANESE CHLORIDE ANHYDROUS | Not Active | Not Active | Not Active | Not Active | Not Active | Not Active | Not Active | Not Active | Not Active | – | – | – | Not Active | Not Active | Not Active | Not Active | Not Active
SODIUM ORTHOVANAD | Not Active | Not Active | Not Active | Not Active | Not Active | Not Active | Not Active | Not Active | Not Active | – | – | – | Not Active | Not Active | Not Active | Not Active | Not Active

Reference: ChEMBL document CHEMBL1909046, “DrugMatrix in vitro pharmacology data”
